Data reported in patent US9594084B2, “Phosphorylation of histones and uses thereof” (H. LEE MOFFITT CANCER CENTER AND RESEARCH INSTITUTE, priority 2012, dated 2017).
Entries after “also recorded” stand apart in the source; their conditions may differ. Values belong to the molecule of their own block, whether it stands above or below them.

How the values were obtained:
[1] = tested on: Xenopus laevis embryos
Description: Table 4 provides the phenotype distribution for surviving embryos (raw data are identical to those in Table 3).

[2] = target: T1, Ack1 (Homo sapiens, UniProt Q07912); assay type: biochemical
Experimental: Purified histone H3 and Ack1 were incubated at 37° C. for 1 hour with or without AIM-100 followed by immunoblotting with indicated antibodies.

[3] = tested on: pTyr-AR recruitment to PSA, NKX3,1 and TMPRSS2 promoters; assay: ChIP-qPCR for pTyr267-AR binding to PSA, NKX3.1 and TMPRSS2 AREs in LAPC4 cells; assay type: cell-based; details: EGF (10 ng/ml, 1 hr), AIM-100 0.8 μM, 16 hr
Experimental: FIG. 8A-8C are bar graphs showing Ack1 inhibition by AIM-100 suppressed recruitment of pTyr-AR to PSA (FIG. 8A), NKX3.1 (FIG. 8B) and TMPRSS2 (FIG. 8C) promoters. LAPC4 cells were treated with DHT (5 nM, 16 hr) or EGF (10 ng/ml, 1 hr), and AIM-100 (0.8 μM, 16 hr) and ChIP analysis for pTyr267-AR binding to the PSA, NKX3.1 and TMPRSS2 AREs was performed followed by qPCR. *p=0.001; **p=0.006; ***p=0.014.
LAPC4 cells were treated with DHT (5 nM, 16 hr), EGF (10 ng/ml, 1 hr), or EGF and AIM-100 (0.8 μM, 16 hr) and ChIP analysis for pTyr267-AR binding to the PSA, NKX3.1 and TMPRSS2 AREs was performed followed by qPCR. Ack1 inhibition by AIM-100 suppressed recruitment of pTyr-AR to PSA, NKX3,1 and TMPRSS2 promoters (FIGS. 8A-8C).

[4] = tested on: LNCaP-caAck expressing cells; assay: LNCaP-caAck prostate xenograft tumor growth in castrated nude male mice; assay type: in vivo; details: 4 mg/kg of body weight per injection, five times
Experimental: FIG. 9 is a line graph showing prostate xenograft tumor volume (mm^3) in castrated nude male mice treated with AIM-100 Ack1 inhibitor or DMSO control. Castrated nude male mice were injected with LNCaP-caAck expressing cells. Mice were injected with AIM-100 (4 mg/kg of body weight per injection) on five times (n=8) and tumor volumes were measured.
Castrated nude male mice were injected with LNCaP-caAck expressing cells. Mice were injected with AIM-100 (4 mg/kg of body weight per injection) on five times (n=8) and tumor volumes were measured.

[5] = tested on: H3K9 and K27 methylation; assay: Immunoblot of H3K9/H3K27 methylation in LAPC4 cells; assay type: cell-based
Experimental: FIG. 25 is an immunoblot of lysates from LAPC4 cells that were untreated (column 1), treated with EGF (column 2), or treated with EGF and AIM-100 (column 3) that were immunoblotted with H3K9 dimethyl (top panel), H3K27 (middle panel), or H3 (bottom panel) antibodies.
The prostate cancer derived cells, LAPC4 were treated with AIM-100 (7 uM, 16 hours). The equal amount of cell lysates were subjected to immunoblotting with H3K9me3 and histone H3 antibodies. […] The histone H3 antibodies were used as a control to indicate equal amount of protein.
(§1) LAPC4 cells were treated with EGF or EGF and AIM-100 and the lysates were immunoblotted with H3K9 dimethyl and H3K27 dimethyl antibodies. Thus, marking of chromatin with H3-Tyr99-phosphorylation within AR-target gene promoters may suppress repressive dimethylation leading to transcriptional activation in androgen-deprived environment of prostate tumors.
as §1, with “H3K9” for “H3K9 dimethyl”, “H3K27” for “H3K27 dimethyl”

[6] = target: T2, Ack1 (Homo sapiens, UniProt Q07912, E346K); assay type: biochemical; details: 5 uM for 1 hour at 30° C.
T2 construct: HA; made in house

[7] = target: T1, Ack1; assay type: biochemical; details: ELISA, read at 450 nm
Experimental: WEE1 and Ack1 are two non-receptor tyrosine kinases or NRTKs that have known nuclear functions. To determine whether WEE1 and Ack1 can directly target H4 for Tyr88-phosphorylation, this study performed in vitro kinase assay. In brief, the Streptavidin coated 96-well plates (R&D systems) were incubated with biotinylated H4-derived peptide […] (SEQ ID NO: 64) for 1 hour. The plates were washed and the purified WEE1 or Ack1 were added in kinase buffer (20 mM HEPES, 150 mM NaCl, 0.5% Triton X-100, 10% Glycerol, phosphatase and protease inhibitors) containing ATP and MgCl2. After 2 hours of incubation, plates were washed with phosphate buffered saline containing 0.1% Tween 20 (PBST) and blocked in 3% BSA. The pY88-H4 antibodies (at 1:500 dilution) were added and incubated for 1 hour. Unbound antibodies were washed and HRP-conjugated anti-mouse secondary Antibodies (1:2000) were added. Magnitude of phosphorylation was detected using developer solution (OPD tablets, Sigma) and the plates were read at 450 nm. As a negative control, no kinase and no peptide reactions were used. The biotinylated phosphopeptide […]p[…] (SEQ ID NO: 65) was used as a positive control.

[8] = target: T3, ATM (Homo sapiens, UniProt Q13315); assay: IR-induced de-phosphorylation of pY37-H2B in H1975 cells (immunoblot); assay type: cell-based; details: H1975 irradiated (15GY)
T3 construct: endogenous in cells; host or cells: H1975
Description: Whole cell extracts were immunoblotted with indicated antibodies.
To determine whether pY37-H2B de-phosphorylation is regulated by ATM recruited to the sites of DSBs by the MRN complex, Applicants treated the cells with the ATM inhibitor Ku55393. […] EYA in turn interacted with H2AX executing a damage-signal-dependent dephosphorylation of Tyr142, that is constitutively phosphorylated in the absence of DNA damage (Cook, P. J. et al. (2009) Nature, 458(7238):591-596).

[9] = Table 3, of total injected embryos

T1 sequence (Q07912 whole entry): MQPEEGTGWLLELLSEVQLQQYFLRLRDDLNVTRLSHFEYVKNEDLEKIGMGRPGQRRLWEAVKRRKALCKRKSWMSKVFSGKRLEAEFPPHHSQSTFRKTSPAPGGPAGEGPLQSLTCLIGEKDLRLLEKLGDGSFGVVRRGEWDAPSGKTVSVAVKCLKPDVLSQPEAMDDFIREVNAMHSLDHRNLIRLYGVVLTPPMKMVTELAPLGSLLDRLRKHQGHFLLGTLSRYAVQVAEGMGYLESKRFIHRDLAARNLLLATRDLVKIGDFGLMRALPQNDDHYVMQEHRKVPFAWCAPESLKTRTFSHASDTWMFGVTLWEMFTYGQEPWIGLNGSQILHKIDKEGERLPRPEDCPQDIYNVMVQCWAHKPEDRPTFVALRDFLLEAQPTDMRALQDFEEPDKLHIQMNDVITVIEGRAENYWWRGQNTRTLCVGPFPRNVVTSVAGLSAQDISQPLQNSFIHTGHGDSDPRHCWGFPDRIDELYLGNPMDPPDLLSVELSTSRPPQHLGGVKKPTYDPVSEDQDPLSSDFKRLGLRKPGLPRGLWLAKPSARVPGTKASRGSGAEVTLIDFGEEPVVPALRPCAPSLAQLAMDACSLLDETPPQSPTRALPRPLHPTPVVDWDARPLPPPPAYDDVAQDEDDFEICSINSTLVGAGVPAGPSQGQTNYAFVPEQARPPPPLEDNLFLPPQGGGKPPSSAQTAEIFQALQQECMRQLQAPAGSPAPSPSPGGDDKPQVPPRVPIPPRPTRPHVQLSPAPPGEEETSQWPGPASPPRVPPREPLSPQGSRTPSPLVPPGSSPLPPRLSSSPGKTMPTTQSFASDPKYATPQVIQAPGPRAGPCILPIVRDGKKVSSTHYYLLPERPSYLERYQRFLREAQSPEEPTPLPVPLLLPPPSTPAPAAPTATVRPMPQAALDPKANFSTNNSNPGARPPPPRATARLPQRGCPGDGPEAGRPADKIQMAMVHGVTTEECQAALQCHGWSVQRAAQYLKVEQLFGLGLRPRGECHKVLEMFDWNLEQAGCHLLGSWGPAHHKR
T2 sequence (Q07912 whole entry E346K): as the sequence (Q07912 whole entry) above, with E346K counted along it
T3 sequence (Q13315 whole entry): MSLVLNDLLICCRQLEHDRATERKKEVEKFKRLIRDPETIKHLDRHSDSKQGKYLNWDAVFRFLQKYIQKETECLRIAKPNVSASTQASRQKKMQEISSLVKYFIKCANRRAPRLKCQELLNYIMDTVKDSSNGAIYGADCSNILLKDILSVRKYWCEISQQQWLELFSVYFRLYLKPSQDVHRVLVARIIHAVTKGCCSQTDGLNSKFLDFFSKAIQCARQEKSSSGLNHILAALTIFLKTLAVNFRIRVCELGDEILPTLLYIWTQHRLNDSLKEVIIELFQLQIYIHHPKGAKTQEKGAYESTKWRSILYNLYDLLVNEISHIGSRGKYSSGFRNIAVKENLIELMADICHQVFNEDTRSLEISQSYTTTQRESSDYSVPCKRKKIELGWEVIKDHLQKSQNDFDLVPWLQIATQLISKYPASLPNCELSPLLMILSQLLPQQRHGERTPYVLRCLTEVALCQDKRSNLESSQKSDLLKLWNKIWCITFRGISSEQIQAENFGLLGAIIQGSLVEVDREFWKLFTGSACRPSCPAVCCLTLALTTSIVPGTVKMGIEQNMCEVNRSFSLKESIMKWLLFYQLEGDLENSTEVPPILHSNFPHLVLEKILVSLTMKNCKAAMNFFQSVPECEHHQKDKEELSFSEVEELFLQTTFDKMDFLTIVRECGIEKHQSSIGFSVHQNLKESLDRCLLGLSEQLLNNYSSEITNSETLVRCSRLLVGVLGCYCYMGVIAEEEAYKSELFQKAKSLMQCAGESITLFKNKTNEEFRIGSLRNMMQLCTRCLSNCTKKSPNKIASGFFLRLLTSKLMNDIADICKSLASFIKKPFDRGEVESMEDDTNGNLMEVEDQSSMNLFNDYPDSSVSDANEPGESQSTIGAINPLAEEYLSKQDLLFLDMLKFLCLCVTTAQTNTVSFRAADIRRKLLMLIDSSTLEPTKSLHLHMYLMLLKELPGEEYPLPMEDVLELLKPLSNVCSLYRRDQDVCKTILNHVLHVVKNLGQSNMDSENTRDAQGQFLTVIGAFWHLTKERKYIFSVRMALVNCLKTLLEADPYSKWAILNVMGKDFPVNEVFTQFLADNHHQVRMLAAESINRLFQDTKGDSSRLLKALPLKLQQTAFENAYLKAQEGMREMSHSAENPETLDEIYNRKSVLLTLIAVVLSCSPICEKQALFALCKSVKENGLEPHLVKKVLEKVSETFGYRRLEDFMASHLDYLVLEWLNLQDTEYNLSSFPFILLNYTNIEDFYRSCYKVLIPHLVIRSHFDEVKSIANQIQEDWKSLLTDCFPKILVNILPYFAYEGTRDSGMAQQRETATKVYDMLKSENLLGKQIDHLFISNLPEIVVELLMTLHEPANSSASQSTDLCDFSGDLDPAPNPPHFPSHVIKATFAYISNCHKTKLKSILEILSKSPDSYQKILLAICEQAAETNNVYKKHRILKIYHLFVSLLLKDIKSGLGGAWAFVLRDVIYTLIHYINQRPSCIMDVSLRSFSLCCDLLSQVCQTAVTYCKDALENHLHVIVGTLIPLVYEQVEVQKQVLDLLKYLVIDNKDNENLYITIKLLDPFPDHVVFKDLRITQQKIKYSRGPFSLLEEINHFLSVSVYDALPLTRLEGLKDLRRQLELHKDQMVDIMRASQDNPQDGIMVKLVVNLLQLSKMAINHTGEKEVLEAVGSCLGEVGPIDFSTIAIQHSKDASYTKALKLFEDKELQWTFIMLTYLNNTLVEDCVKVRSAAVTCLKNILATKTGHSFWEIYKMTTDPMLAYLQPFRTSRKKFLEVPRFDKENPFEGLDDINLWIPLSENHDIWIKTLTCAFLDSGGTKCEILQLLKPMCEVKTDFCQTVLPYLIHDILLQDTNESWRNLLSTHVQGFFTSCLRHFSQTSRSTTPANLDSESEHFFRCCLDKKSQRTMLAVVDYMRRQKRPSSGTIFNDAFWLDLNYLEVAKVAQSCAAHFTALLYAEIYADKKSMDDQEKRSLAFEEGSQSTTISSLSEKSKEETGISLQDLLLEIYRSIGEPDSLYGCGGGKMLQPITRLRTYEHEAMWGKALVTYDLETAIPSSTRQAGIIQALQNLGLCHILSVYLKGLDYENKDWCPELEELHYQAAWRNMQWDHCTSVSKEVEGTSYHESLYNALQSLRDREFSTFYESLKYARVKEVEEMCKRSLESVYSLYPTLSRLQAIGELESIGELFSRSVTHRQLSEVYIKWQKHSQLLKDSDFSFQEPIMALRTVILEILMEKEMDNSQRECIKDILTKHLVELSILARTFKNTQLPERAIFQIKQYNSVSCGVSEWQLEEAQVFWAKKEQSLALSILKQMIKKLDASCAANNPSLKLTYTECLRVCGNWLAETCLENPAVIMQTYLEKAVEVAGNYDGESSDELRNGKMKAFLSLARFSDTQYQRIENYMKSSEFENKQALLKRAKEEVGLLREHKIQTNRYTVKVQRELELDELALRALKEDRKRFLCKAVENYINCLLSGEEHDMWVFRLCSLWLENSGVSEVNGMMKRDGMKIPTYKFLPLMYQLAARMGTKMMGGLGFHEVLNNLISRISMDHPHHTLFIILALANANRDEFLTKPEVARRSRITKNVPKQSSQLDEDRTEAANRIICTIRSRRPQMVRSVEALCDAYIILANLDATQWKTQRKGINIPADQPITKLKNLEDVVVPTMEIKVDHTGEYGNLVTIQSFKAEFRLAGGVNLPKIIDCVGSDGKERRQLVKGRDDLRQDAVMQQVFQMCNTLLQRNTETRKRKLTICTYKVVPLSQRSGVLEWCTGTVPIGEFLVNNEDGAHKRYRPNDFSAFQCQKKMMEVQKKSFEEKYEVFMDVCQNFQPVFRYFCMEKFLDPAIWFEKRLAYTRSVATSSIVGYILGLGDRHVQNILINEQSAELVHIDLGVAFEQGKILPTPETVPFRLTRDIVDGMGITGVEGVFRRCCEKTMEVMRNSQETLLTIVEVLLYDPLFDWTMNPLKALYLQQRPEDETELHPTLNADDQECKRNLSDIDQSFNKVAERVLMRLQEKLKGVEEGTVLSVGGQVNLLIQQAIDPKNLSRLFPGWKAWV

Structure (SMILES): c1ccc(-c2oc3ncnc(NC[C@@H]4CCCO4)c3c2-c2ccccc2)cc1 [AIM-100]
abn/delay, gastrulation is abnormal or delayed (% of total) [1, 9]: (6.7%)
abn/delay, gastrulation is abnormal or delayed (number of embryos) [1, 9]: 15
dead (% of total) [1, 9]: (43%)
dead (number of embryos) [1, 9]: 97
epib blk, epiboly block phenotype (% of total) [1, 9]: (29%)
epib blk, epiboly block phenotype (number of embryos) [1, 9]: 65
epib red, partial phenotype (% of total) [1, 9]: (8%)
epib red, partial phenotype (number of embryos) [1, 9]: 18
norm. (% of total) [1, 9]: (11%)
norm. (number of embryos) ([1]; Table 3, of total injected embryos, antibodies 200 ng/em, AIM-100 200 pM/em): 24
abn/delay (% of survivors) ([1]; Table 4, surviving embryos): 12%
abn/delay (number of embryos) ([1]; Table 4, surviving embryos): 15
epib blk (number of embryos) ([1]; Table 4, surviving embryos): 65
epib red (number of embryos) ([1]; Table 4, surviving embryos): 18
normal (% of survivors) ([1]; Table 4, surviving embryos): 19%
normal (number of embryos) ([1]; Table 4, surviving embryos): 24
mortality rate ([1]; by the onset of gastrulation (~20 hours after microinjection at the 2-cell stage, 16° C.)): 43-45%
timing or pattern of early cleavages ([1]; injected embryos): did not alter
epib blk, epiboly block/involution failure (% of survivors) ([1]; surviving embryos): 51%
epib red, partial reduced epiboly phenotype (% of survivors) ([1]; surviving embryos): 14%
Ack1 phosphorylation of H3 at Tyr99 [2]: significantly compromised
recruitment of pTyr-AR to PSA, NKX3,1 and TMPRSS2 promoters [3]: suppressed
prostate xenograft tumor growth [4]: mitigated the growth; also recorded: partially suppresses
H3K9 and K27 dimethylation and trimethylation [5]: increased
H3 K9 trimethylation ([5]; LAPC4 cells, 7 uM, 16 hours): increased; also recorded: significant increase
H3K9 and K27 dimethylation ([5]; LAPC4 cells, EGF and AIM-100): increased
H4 pTyr51-phosphorylation by purified E346K-Ack1 [6]: abrogated
H4 Tyr88-phosphorylation by Ack1 [7]: significantly decreased

IR-induced de-phosphorylation of pY37-H2B [8]: prevented
Structure (SMILES): O=c1cc(-c2cccc3c2Sc2ccccc2S3)oc(N2CCOCC2)c1 [Ku55393]
